{"source": "paper PMC4886168", "about": "“Effects of solid‐phase extraction of plasma in measuring gut metabolic hormones in fasted and fed blood of lean and diet‐induced obese rats” (Physiological Reports, 2016)", "molecules": {"B1": {"name": "Leptin (protein, UniProt P41160 22-167, looked up)", "Leptin": "VPIQKVQDDTKTLIKTIVTRINDISHTQSVSAKQRVTGLDFIPGLHPILSLSKMDQTLAVYQQVLTSLPSQNVLQIANDLENLRDLLHLLAFSKSCSLPQTSGLQKPESLDGVLEASLYSTEVVALSRLQGSLQDILQQLDVSPEC"}}, "key": {"[1]": {"details": "rats, amylin 15 ng/kg/min IV; solid-phase extraction of plasma, amylin radioimmunoassay; ref Arnelo et al. 1998; cited from earlier work", "source_text": "With respect to the pancreatic hormone amylin, we previously provided evidence that postprandial plasma levels of amylin are not quite sufficient to inhibit food intake in rats by an endocrine mechanism (Arnelo et al. 1998). […] Here, we provide evidence using solid‐phase extraction of plasma and the multiplex assay for active amylin that a large chow meal in ..."}, "food intake in lean rats": {"tested_on": "food intake in lean rats", "details": "cited from earlier work; for ED50 dose for reducing food intake: 3-h IV infusion, ref Reidelberger et al. 2001, Chelikani et al. 2005a,b"}, "[2]": {"test": "Plasma peptide levels during IV infusion of anorexigenic doses in lean rats", "experimental": "Leptin doses bracketed the minimal effective dose (1100 ng/kg/min) for reducing food intake in lean rats (Reidelberger et al. 2012). Approximately 45 min after infusion onset, and while the infusion continued, rats were anesthetized with isoflurane (3%), and blood samples (~3 mL) were obtained by cardiac puncture. Samples were immediately transferred to 4 mL EDTA tubes on ice containing 40 μL of a mixture of 0.9 mL DPP4 inhibitor, 0.1 mL Protease Inhibitor Cocktail, and 0.1 g AEBSF. Plasma was obtained by centrifugation within 30 min of sample collection and stored at −70°C until solid‐phase extraction of samples followed by the multiplex assay. Infusions were administered using a syringe infusion pump (Harvard Apparatus, South Natick, MA). At the end of the experiment, data from a rat were excluded if its jugular vein catheter was not patent. A catheter was deemed patent if the rat lost consciousness within 10 sec of a bolus injection of the short‐acting anesthetic brevital into the catheter.\nPlasma samples were extracted using procedures similar to those described previously (Dai et al. 2008). Briefly, an OASIS HLB LP (60 mg) 96‐well extraction plate (Waters Corp., Milford, MA) was prepared by passing 1 mL acetonitrile twice through each well, followed by 3, 1 mL washes of 1% trifluoroacetic acid (TFA; 1:100 water [vol/vol]). Flows through the wells were facilitated using a Waters vacuum manifold (5 inch Hg). Plasma (1 mL) was then added to each well; 10 min later, flows were facilitated using vacuum. Wells were then washed three times with 1 mL 1% TFA (facilitated using vacuum). Extracts were eluted into individual tubes by adding 1 mL of 1% TFA, 60% acetonitrile in water (vol/vol) to each well; 10 min later, flows were facilitated using vacuum. Samples of each extract (0.9 mL) were frozen, and then lyophilized to dryness. At time of assay, dried extracts for each sample were dissolved with 0.45 mL of assay buffer, producing a twofold higher concentration for eluted plasma components.\nThe multiplex assay employed a BioTek ELx405 plate washer fitted with a magnetic holder, and a Luminex 200 analyzer. […] Initial assays compared peptide standards used in the multiplex assay with those used in the individual ELIAs: multiplex assay standards were included in the individual ELIAs, and standards from the ELIAs were included in the multiplex assay.\nIn experiments examining the effects of solid‐phase extraction of plasma samples on specific recoveries of the seven peptides added to lean and obese plasma, measured peptide concentrations in each plasma sample were plotted against expected concentrations (after subtracting plasma alone values), and linear regression analyses were performed. […] Planned comparisons of treatment means were evaluated by t‐tests or paired t‐tests. […]"}}, "note": "Where “and” joins values, the source holds several entries; their conditions need not be identical. Identical values can stand only once."}
{"molecule": "CC(C)C[C@H](NC(=O)[C@H](CC(N)=O)NC(=O)[C@H](CC(N)=O)NC(=O)[C@H](CO)NC(=O)[C@H](CO)NC(=O)[C@H](CCCNC(=N)N)NC(=O)[C@@H](NC(=O)[C@H](CC(C)C)NC(=O)[C@H](Cc1ccccc1)NC(=O)[C@H](CC(N)=O)NC(=O)[C@H](C)NC(=O)[C@H](CC(C)C)NC(=O)[C@H](CCCNC(=N)N)NC(=O)[C@H](CCC(N)=O)NC(=O)[C@@H](NC(=O)[C@H](C)NC(=O)[C@@H]1CSSC[C@H](NC(=O)[C@@H](N)CCCCN)C(=O)N[C@@H](CC(N)=O)C(=O)N[C@@H]([C@@H](C)O)C(=O)N[C@@H](C)C(=O)N[C@@H]([C@@H](C)O)C(=O)N1)[C@@H](C)O)C(C)C)C(=O)NCC(=O)N1CCC[C@H]1C(=O)N[C@H](C(=O)N[C@@H](CC(C)C)C(=O)N1CCC[C@H]1C(=O)N1CCC[C@H]1C(=O)N[C@H](C(=O)N[C@@H](CC(N)=O)C(=O)N[C@H](C(=O)NCC(=O)N[C@@H](CO)C(=O)N[C@@H](CC(N)=O)C(=O)N[C@H](C(=O)N[C@@H](Cc1ccc(O)cc1)C(N)=O)[C@@H](C)O)C(C)C)[C@@H](C)O)C(C)C", "note": "[Amylin]", "values": [{"measurement": "plasma amylin produced by anorexigenic IV dose", "setting": "[1]", "value": 140, "unit": "pg/mL"}, {"measurement": "ED50 dose for reducing food intake", "setting": "food intake in lean rats; lean rats", "value": 31, "unit": "ng/kg/min"}, {"measurement": "predicted plasma active amylin level at minimal anorexigenic dose", "setting": "[2]; rat, in vivo, iv", "value": "450 [−460, 1360] pg/mL"}]}
{"molecule": "CC[C@H](C)[C@H](NC(=O)[C@H](Cc1ccccc1)NC(=O)[C@H](CCC(=O)O)NC(=O)[C@H](CCCCN)NC(=O)[C@H](C)NC(=O)[C@H](C)NC(=O)[C@H](CCC(N)=O)NC(=O)CNC(=O)[C@H](CCC(=O)O)NC(=O)[C@H](CC(C)C)NC(=O)[C@H](Cc1ccc(O)cc1)NC(=O)[C@H](CO)NC(=O)[C@H](CO)NC(=O)[C@@H](NC(=O)[C@H](CC(=O)O)NC(=O)[C@H](CO)NC(=O)[C@@H](NC(=O)[C@H](Cc1ccccc1)NC(=O)[C@@H](NC(=O)CNC(=O)[C@H](CCC(=O)O)NC(=O)[C@H](C)NC(=O)[C@@H](N)Cc1c[nH]cn1)[C@@H](C)O)[C@@H](C)O)C(C)C)C(=O)N[C@@H](C)C(=O)N[C@@H](Cc1c[nH]c2ccccc12)C(=O)N[C@@H](CC(C)C)C(=O)N[C@H](C(=O)N[C@@H](CCCCN)C(=O)NCC(=O)N[C@@H](CCCNC(=N)N)C(N)=O)C(C)C", "note": "[GLP‐1, Glucagon‐like peptide‐1]", "values": [{"measurement": "ED50 dose for reducing food intake", "setting": "food intake in lean rats; lean rats", "value": 76, "unit": "ng/kg/min"}, {"measurement": "effect on food intake", "setting": "food intake in lean rats; rats, IV infusion of GLP-1 at 33 ng/kg/min, ref Chelikani et al. 2005b", "value": "sufficient to decrease food intake"}, {"measurement": "best-fit linear regression equation, Y plasma peptide concentration (pg/mL), X peptide dose (ng/kg/min)", "setting": "[2]; lean rats, 45 min IV infusion, three dose levels incl. 0, extracted plasma, multiplex assay, multiplex standards as reference", "value": "37 + 75X pg/mL"}, {"measurement": "plasma level at ~ED50 dose relative to that produced by the large meal", "setting": "[2]; lean rats, IV ~ED50 doses (56, 68, 39 ng/kg/min) vs postprandial level 30 min after meal onset, ELIA standards as reference", "value": "30–60 fold and 30 fold"}, {"measurement": "predicted plasma active GLP-1 level at minimal anorexigenic dose", "setting": "[2]; regression prediction for GLP-1 1.6 ng/kg/min IV, dose not administered here, [95% CI]", "value": "53 [−400, 510] pg/mL"}]}
{"molecule": "B1", "values": [{"measurement": "minimal effective dose for reducing food intake", "setting": "food intake in lean rats; lean rats, IV infusion of leptin, ref Reidelberger et al. 2012", "value": 1100, "unit": "ng/kg/min"}]}
